# Laboratory results published in publication PMC4508061, “Selectivity Profiling and Biological Activity of Novel β-Carbolines as Potent and Selective DYRK1 Kinase Inhibitors” (PLoS ONE, 2015).
# “Also recorded” adds a separate entry of the source.
# How the values were obtained:
# [1] = biological target: T1, MAO-A (Homo sapiens, UniProt P21397); experiment: MAO-GLO assay; assay type: biochemical
# T1 sequence (P21397 1-527): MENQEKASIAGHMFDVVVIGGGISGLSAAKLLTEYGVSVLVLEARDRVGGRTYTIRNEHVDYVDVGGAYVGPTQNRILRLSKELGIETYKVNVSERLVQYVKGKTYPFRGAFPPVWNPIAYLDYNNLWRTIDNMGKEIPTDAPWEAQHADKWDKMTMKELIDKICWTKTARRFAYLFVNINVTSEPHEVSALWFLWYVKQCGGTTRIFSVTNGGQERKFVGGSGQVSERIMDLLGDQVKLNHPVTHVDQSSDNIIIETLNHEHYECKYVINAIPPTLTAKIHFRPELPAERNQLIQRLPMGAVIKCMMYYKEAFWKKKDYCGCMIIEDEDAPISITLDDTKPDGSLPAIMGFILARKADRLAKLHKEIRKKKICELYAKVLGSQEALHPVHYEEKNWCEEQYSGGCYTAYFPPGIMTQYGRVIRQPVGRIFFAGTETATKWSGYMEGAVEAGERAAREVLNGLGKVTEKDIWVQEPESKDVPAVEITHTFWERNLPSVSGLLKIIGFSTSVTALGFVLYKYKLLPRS
# Experimental: 2 were calculated. Kinase activity of DYRK1A was determined by radiometric assays using the peptide DYRKtide as a substrate. MAO-A activity was measured with the help of the MAO-GLO assay kit (Promega). IC50 values were calculated by curve fitting with the help of […]
# the […] PRISM 5.0 program after automatic outlier elimination. The graphs present
# [2] = biological target: ACV-R2B (Homo sapiens, UniProt Q13705); experiment: ProQinase radiometric kinase panel; conditions: mean of 2 exp.
# [3] = biological target: FGF-R4 (Homo sapiens, UniProt P22455); experiment: ProQinase radiometric kinase panel; conditions: mean of 2 exp.
# [4] = biological target: VRK1 (Homo sapiens, UniProt Q99986); experiment: ProQinase radiometric kinase panel; conditions: mean of 2 exp.
# [5] = biological target: MARK3 (Homo sapiens, UniProt P27448); experiment: ProQinase radiometric kinase panel; conditions: mean of 2 exp.
# [6] = biological target: CHK1 (Homo sapiens, UniProt O14757); experiment: ProQinase radiometric kinase panel; conditions: mean of 2 exp.
# [7] = biological target: CAMKK1 (Homo sapiens, UniProt Q8N5S9); experiment: ProQinase radiometric kinase panel; conditions: mean of 2 exp.
# [8] = biological target: PRK2 (Homo sapiens, UniProt Q16513); experiment: ProQinase radiometric kinase panel; conditions: mean of 2 exp.
# [9] = biological target: STK39 (Homo sapiens, UniProt Q9UEW8); experiment: ProQinase radiometric kinase panel; conditions: mean of 2 exp.
# [10] = biological target: PRKX (Homo sapiens, UniProt P51817); experiment: ProQinase radiometric kinase panel; conditions: mean of 2 exp.
# [11] = biological target: NEK7 (Homo sapiens, UniProt Q8TDX7); experiment: ProQinase radiometric kinase panel; conditions: mean of 2 exp.
# [12] = biological target: TIE2 (Homo sapiens, UniProt Q02763); experiment: ProQinase radiometric kinase panel; conditions: mean of 2 exp.
# [13] = biological target: FGF-R2 (Homo sapiens, UniProt P21802); experiment: ProQinase radiometric kinase panel; conditions: mean of 2 exp.
# [14] = biological target: WEE1 (Homo sapiens, UniProt P30291); experiment: ProQinase radiometric kinase panel; conditions: mean of 2 exp.
# [15] = biological target: SRPK1 (Homo sapiens, UniProt Q96SB4); experiment: ProQinase radiometric kinase panel; conditions: mean of 2 exp.
# [16] = biological target: PLK1 (Homo sapiens, UniProt P53350); experiment: ProQinase radiometric kinase panel; conditions: mean of 2 exp.
# [17] = biological target: MAP4K2 (Homo sapiens, UniProt Q12851); experiment: ProQinase radiometric kinase panel; conditions: mean of 2 exp.
# [18] = biological target: mTOR (Homo sapiens, UniProt P42345); experiment: ProQinase radiometric kinase panel; conditions: mean of 2 exp.
# [19] = biological target: EIF2AK2 (Homo sapiens, UniProt P19525); experiment: ProQinase radiometric kinase panel; conditions: mean of 2 exp.
# [20] = biological target: CSK (Homo sapiens, UniProt P41240); experiment: ProQinase radiometric kinase panel; conditions: mean of 2 exp.
# [21] = biological target: PDGFR-beta (Homo sapiens, UniProt P09619); experiment: ProQinase radiometric kinase panel; conditions: mean of 2 exp.
# [22] = biological target: EPHB2 (Homo sapiens, UniProt P29323); experiment: ProQinase radiometric kinase panel; conditions: mean of 2 exp.
# [23] = biological target: MATK (Homo sapiens, UniProt P42679); experiment: ProQinase radiometric kinase panel; conditions: mean of 2 exp.
# [24] = biological target: ERBB4 (Homo sapiens, UniProt Q15303); experiment: ProQinase radiometric kinase panel; conditions: mean of 2 exp.
# [25] = biological target: BTK (Homo sapiens, UniProt Q06187); experiment: ProQinase radiometric kinase panel; conditions: mean of 2 exp.
# [26] = biological target: GRK7 (Homo sapiens, UniProt Q8WTQ7); experiment: ProQinase radiometric kinase panel; conditions: mean of 2 exp.
# [27] = biological target: CAMK2D (Homo sapiens, UniProt Q13557); experiment: ProQinase radiometric kinase panel; conditions: mean of 2 exp.
# [28] = biological target: MARK1 (Homo sapiens, UniProt Q9P0L2); experiment: ProQinase radiometric kinase panel; conditions: mean of 2 exp.
# [29] = biological target: HIPK2 (Homo sapiens, UniProt Q9H2X6); experiment: ProQinase radiometric kinase panel; conditions: mean of 2 exp.
# [30] = biological target: FGF-R1 (Homo sapiens, UniProt P11362); experiment: ProQinase radiometric kinase panel; conditions: mean of 2 exp.
# [31] = biological target: PAK7 (Homo sapiens, UniProt Q9P286); experiment: ProQinase radiometric kinase panel; conditions: mean of 2 exp.
# TIE2, sequence (Q02763 23-1124): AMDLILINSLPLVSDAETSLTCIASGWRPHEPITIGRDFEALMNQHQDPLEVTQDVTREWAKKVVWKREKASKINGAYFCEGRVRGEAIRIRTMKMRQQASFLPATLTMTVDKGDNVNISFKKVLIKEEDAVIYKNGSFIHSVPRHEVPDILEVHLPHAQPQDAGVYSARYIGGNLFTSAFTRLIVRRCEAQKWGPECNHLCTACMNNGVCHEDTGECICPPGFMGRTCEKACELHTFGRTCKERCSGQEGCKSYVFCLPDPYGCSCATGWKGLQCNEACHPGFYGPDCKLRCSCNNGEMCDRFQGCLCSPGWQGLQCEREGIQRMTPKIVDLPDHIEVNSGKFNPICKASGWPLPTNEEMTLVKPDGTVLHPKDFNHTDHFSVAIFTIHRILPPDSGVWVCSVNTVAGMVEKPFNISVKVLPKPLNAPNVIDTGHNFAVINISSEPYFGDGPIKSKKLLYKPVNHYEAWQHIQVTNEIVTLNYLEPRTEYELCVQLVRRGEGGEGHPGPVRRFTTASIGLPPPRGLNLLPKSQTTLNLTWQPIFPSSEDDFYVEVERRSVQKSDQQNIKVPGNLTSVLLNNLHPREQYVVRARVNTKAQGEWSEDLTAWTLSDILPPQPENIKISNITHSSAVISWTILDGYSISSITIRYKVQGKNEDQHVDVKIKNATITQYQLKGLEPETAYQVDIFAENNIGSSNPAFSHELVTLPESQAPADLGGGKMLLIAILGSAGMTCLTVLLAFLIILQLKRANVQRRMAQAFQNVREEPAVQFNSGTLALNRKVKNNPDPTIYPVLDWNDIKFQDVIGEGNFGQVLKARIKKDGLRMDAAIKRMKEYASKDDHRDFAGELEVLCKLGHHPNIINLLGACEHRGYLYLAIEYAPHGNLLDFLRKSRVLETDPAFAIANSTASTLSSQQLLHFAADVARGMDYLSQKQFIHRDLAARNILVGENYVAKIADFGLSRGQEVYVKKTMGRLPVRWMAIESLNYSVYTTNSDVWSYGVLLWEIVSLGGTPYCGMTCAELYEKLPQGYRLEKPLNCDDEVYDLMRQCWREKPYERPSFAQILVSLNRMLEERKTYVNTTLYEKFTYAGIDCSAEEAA
# EIF2AK2, sequence (P19525 whole entry): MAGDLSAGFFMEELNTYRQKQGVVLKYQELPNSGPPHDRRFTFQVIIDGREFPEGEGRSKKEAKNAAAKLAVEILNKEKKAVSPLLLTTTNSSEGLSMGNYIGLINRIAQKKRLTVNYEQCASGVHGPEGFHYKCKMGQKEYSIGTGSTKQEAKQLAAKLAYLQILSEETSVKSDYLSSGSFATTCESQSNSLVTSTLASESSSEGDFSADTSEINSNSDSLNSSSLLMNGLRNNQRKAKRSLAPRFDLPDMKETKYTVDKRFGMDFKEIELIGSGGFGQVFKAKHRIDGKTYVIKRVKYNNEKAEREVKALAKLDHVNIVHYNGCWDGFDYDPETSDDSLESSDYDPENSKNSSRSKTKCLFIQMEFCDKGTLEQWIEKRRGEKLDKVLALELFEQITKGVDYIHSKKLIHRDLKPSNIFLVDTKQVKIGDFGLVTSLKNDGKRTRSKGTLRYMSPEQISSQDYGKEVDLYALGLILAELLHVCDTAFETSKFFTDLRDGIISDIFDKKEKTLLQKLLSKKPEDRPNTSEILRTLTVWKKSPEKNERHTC
# PRKX, sequence (P51817 whole entry): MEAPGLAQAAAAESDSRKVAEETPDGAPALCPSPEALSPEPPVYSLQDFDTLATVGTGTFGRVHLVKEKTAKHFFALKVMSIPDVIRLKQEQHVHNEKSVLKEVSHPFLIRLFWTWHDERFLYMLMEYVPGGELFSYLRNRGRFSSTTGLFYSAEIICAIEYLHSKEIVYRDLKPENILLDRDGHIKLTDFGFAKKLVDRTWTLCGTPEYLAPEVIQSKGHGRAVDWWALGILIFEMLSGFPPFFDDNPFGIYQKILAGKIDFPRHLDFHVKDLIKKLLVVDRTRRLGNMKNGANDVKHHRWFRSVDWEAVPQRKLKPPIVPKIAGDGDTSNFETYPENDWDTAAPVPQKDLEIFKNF
# MARK3, sequence (P27448 whole entry): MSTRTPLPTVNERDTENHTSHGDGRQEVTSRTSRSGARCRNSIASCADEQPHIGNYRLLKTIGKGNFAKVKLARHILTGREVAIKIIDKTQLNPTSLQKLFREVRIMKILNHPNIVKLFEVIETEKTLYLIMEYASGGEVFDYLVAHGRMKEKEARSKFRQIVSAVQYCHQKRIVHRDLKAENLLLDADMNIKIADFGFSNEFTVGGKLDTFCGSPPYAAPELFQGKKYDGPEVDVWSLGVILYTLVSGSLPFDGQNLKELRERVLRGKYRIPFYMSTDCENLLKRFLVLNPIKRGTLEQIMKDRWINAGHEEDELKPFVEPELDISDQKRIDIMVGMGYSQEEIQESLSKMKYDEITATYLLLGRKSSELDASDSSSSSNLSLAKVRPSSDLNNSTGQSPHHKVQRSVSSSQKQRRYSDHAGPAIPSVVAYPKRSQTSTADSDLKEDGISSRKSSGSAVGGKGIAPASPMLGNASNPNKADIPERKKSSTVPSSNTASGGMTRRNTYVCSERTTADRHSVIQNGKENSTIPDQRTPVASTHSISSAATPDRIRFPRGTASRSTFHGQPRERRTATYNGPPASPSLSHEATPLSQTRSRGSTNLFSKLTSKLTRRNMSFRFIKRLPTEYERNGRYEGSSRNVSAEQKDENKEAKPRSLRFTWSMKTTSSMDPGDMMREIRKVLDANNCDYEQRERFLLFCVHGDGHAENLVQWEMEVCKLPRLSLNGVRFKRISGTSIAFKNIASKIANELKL
# CSK, sequence (P41240 whole entry): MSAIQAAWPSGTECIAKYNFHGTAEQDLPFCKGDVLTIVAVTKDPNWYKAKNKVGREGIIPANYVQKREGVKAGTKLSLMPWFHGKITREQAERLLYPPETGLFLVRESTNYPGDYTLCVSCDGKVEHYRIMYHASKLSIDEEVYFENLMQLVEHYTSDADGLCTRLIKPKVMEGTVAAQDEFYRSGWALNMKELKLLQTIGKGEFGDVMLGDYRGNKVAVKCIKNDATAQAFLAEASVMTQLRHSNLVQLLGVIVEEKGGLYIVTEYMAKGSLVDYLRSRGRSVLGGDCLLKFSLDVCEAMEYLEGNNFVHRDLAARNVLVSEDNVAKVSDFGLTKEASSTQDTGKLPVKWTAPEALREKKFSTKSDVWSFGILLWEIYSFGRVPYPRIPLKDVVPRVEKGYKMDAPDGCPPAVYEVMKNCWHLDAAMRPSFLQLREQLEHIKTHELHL
# GRK7, sequence (Q8WTQ7 whole entry): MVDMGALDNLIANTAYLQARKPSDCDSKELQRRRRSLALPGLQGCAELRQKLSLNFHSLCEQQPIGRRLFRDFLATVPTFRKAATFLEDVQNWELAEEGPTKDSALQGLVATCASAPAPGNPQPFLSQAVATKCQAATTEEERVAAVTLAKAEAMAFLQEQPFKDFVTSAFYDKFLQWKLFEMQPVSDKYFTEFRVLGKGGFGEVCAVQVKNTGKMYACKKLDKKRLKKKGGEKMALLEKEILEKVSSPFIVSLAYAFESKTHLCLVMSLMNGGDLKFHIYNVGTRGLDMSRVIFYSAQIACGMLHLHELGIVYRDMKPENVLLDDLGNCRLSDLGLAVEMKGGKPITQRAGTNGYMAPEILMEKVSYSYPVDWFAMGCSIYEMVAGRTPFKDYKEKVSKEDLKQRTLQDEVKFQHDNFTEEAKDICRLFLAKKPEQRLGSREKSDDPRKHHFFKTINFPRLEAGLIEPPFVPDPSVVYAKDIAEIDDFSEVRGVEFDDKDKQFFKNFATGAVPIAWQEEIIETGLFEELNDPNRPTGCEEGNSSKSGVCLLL
# VRK1, sequence (Q99986 whole entry): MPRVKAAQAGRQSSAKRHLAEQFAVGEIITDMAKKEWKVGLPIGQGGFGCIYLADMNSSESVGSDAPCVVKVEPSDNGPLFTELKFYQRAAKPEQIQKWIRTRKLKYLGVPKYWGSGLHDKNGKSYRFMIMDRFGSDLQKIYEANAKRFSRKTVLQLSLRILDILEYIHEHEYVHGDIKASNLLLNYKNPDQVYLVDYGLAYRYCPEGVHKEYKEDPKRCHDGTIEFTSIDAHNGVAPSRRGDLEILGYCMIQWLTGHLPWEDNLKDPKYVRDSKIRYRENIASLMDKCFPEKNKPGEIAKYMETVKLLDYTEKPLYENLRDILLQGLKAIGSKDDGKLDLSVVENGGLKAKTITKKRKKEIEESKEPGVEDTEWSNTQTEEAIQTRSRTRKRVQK
# CHK1, sequence (O14757 whole entry): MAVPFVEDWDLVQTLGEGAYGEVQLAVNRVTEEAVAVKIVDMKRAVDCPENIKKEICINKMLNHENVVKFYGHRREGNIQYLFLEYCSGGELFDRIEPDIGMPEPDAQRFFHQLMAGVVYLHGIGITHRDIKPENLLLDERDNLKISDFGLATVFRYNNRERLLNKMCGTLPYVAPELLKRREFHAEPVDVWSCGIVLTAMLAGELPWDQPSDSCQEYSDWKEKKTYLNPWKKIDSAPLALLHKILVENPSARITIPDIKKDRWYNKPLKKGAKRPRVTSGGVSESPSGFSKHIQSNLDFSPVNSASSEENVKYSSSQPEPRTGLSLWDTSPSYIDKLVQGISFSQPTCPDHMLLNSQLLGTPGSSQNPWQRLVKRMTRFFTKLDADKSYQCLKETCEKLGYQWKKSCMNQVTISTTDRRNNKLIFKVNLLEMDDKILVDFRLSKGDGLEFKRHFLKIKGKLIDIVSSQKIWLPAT
# NEK7, sequence (Q8TDX7 whole entry): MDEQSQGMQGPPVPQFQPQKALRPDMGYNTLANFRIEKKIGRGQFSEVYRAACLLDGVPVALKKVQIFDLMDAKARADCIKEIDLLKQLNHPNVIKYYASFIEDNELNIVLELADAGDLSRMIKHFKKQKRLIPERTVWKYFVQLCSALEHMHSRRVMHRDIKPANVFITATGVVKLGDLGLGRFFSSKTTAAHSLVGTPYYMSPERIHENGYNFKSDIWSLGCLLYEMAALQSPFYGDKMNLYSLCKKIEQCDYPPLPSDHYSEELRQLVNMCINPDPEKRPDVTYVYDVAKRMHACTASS
structure (smiles),measurement,setting,value
COc1ccc2c3ccnc(Cl)c3n(CC#N)c2c1 [AnnH75],effect on MAO-A,[1],complete elimination of MAO-A inhibition; also recorded: no residual effect on MAO-A
same,IC50,"[1]; n = 3–5 concentration response curves, read-out: Inhibition of MAO-A IC50",> 10 µM
same,"residual activity at 1 µM, Mean",[2],97 % of control
same,"residual activity at 1 µM, Mean",[3],98 % of control
same,"residual activity at 1 µM, Mean",[4],89 % of control
same,"residual activity at 1 µM, Mean",[5],100 % of control
same,"residual activity at 1 µM, Mean",[6],100 % of control
same,"residual activity at 1 µM, Mean",[7],89 % of control
same,"residual activity at 1 µM, Mean",[8],88 % of control
same,"residual activity at 1 µM, Mean",[9],85 % of control
same,"residual activity at 1 µM, Mean",[10],80 % of control
same,"residual activity at 1 µM, Mean",[11],93 % of control
same,"residual activity at 1 µM, Mean",[12],84 % of control
same,"residual activity at 1 µM, Mean",[13],85 % of control
same,"residual activity at 1 µM, Mean",[14],100 % of control
same,"residual activity at 1 µM, Mean",[15],111 % of control
same,"residual activity at 1 µM, Mean",[16],93 % of control
same,"residual activity at 1 µM, Mean",[17],93 % of control
same,"residual activity at 1 µM, Mean",[18],90 % of control
same,"residual activity at 1 µM, Mean",[19],95 % of control
same,"residual activity at 1 µM, Mean",[20],94 % of control
same,"residual activity at 1 µM, Mean",[21],88 % of control
same,"residual activity at 1 µM, Mean",[22],99 % of control
same,"residual activity at 1 µM, Mean",[23],102 % of control
same,"residual activity at 1 µM, Mean",[24],90 % of control
same,"residual activity at 1 µM, Mean",[25],96 % of control
same,"residual activity at 1 µM, Mean",[26],103 % of control
same,"residual activity at 1 µM, Mean",[27],87 % of control
same,"residual activity at 1 µM, Mean",[28],101 % of control
same,"residual activity at 1 µM, Mean",[29],87 % of control
same,"residual activity at 1 µM, Mean",[30],97 % of control
same,"residual activity at 1 µM, Mean",[31],90 % of control
